Laboratory results from patent US20100152114A1, “Antioxidant activity of GH-RH Antagonists” (priority 2008, published 2010).
Ends that are not written are not given here.

Tested on: SOD1
Assay: Western Blot of SOD1 in LNCaP cells
Type: cell-based
Settings: 1 μM, 72 hour exposure, only detectable with GHRH (1-29)NH2
Description: FIG. 7: is a Western Blot analysis of expression of the antioxidant enzymes TRX1, NQ01, GPX1 and SOD1 in LNCaP prostate cancer cell line after 72 hour exposure to GHRH antagonist JMR-132 and GHRH(1-29)NH2 n=2.
Prostate cancer cells LNCaP and breast cancer cells MCF-7 were obtained from American Type Culture Collection (Manassas, Va.) and were cultured as described previously. The antibodies that detect P53, PCNA, GPX1, SOD1, NQ01, Thioredoxin 1, COX2 and COX IV were purchased from Cell Signalling (Danvers, Mass.). The antibodies that detect β actin, NFκB50, pNFκB50, caspase 3 and its cleaved form were purchased from Santa Cruz Biotechnology (Santa Cruz, Calif.). The antibodies against GHRH-R (batch number: SV95) and SV1 (batch number: JH 2317/5) were raised in our laboratory. The signals for the immunoreactive proteins were visualized in a Chemi Doc XRS system (Biorad, Hercules, Calif.). The western Blot assay as well the quantification analysis of the blots was performed as described previously.
LNCaP prostate cancer cell line cultured in vitro was exposed to 1 μM JMR-132 and GHRH(1-29)NH2. The expression levels of the detoxifying enzymes were measured by Western Blot. The GPX1 (M.W: 22 Kda) protein expression was higher in the cells exposed to GHRH (1-29)NH2 (R.I: 0.126) and lower in the cells incubated with GHRH antagonist JMR-132 (R.I: 0.035), as compared to control (R.I:0.107). […]

Q: “GHRH(1-29)NH2 (YADAIFTNSYRKVLGQLSARKLLQDIMSR-NH2; UniProt P01286 32-60, looked up, fragment) [Growth Hormone-Releasing Hormone (1-29) amide, agonist peptide used for comparison with the antagonist]” was tested. Which “SOD1 protein expression (R.I)” value did it give?
A: Its value is 0.111.
